The source of these data is patent US7091185B2, “Periodic antimicrobial peptides” (Dow Global Technologies Inc., priority 2003, dated 2006).

Where no end group is shown, it is not given here.

For data set [1], the system named is E. coli ATCC 2592. The note with it: ATCC 2592.
Data set [2] concerns P. aeruginosa ATCC 10145. The note with it: ATCC 10145.
For data set [3], the system named is S. aureus (methicillin resistant) ATCC 33591. The note with it: ATCC 33591.
Data set [4] relates to C. albicans 10231. It counts as cell-based. The note with it: 10231. The method in brief: (§1)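 Broth microdilution per NCCLS, adapted for fungi with Sabouraud Dextrose Broth; KFAK-repeat peptide multimers in two-fold dilutions from 1,000 to 1 μg/ml. Growth by OD620 after overnight incubation; IC50 by sigmoidal fit, in duplicate, repeated at least twice.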
The subject of data set [5] is Cr. Neoformans 32045. It counts as cell-based. The method in brief:
as §1

Data set [6] is described as follows: Red blood cell toxicity. It counts as cell-based. The note with it: red blood cells (RBC); RBCs; concentration required for 50% toxicity; read-out: TX50.
Data set [7] has as its system Red blood cells (RBC). The data set can be described thus: Red blood cell toxicity. Type of data set: cell-based.
The subject of data set [8] is HeLa cell line. Briefly: HeLa MTS cellular reduction toxicity assay. It counts as cell-based. The note with it: for TX50: 24 h, MTS. The method in brief:
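TX50, the concentration giving 50% toxicity, obtained by sigmoidal fitting of relative toxicity versus peptide-free cells. Readout: MTS reduction with PMS, 1 h, A490. Peptides applied in 2-fold serial dilutions to 48 h HeLa monolayers for 24 h at 37 °C.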
On the technique in general: Tetrazolium assays rely on reduction of a dye to a coloured formazan, in cell work by metabolically active cells.

Data set [9] relates to P. aeruginosa ATCC 15442. The data set can be described thus: HMARQ biocidal kill activity. Type of data set: cell-based. Conditions: P. aeruginosa ATCC 15442 (gram−). The method in brief: (§2)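 Values are biocide ppm (μg/mL) needed for 3.5 log reduction relative to untreated controls after 15 min or 24 h exposure. Organisms were added to biocide-containing sample matrix (200–300 μL, mixed by vortex), then enumerated by most-probable-number 1:10 dilution series in TSB/resazurin.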

The subject of data set [10] is Staph. aureus ATCC 6538. Briefly: HMARQ biocidal kill activity. It counts as cell-based. The note with it: Staph. aureus ATCC 6538 (gram+). Summed up:
as §2

Consider “FKAFKAFKAFKAFKAFKAFKA [FKA (7), FKA FKA FKA FKA FKA FKA FKA]”, for which the IC50 (as a rule, the concentration needed to halve the response being measured) in data set [1] is 7 µg/mL; in [2], 23 µg/mL; in data set [3], more than 500 µg/mL; in data set [4] it was 203 µg/mL; in data set [5], 3.2 µg/mL. Further, the MIC (usually the lowest concentration found to suppress growth) in [1] was 16 to 32 µg/mL; in data set [2] it was 32 µg/mL; in [3] it was more than 500 µg/mL; in data set [4], 250 to 500 µg/mL; in [5] it was 4 to 8 µg/mL. Further, the HC50 at 24 h in data set [6] was more than 500 µg/mL. Also, in [7], the “% kill at 250 μg/ml” value is listed as 11%. Besides, in data set [8], the “% kill at 500 μg/ml” value worked out at 103.3%. The substance also registered a TX50 in [8] of more than 500 µg/mL. Moreover, the results for the “ppm needed for 3.5 log kill at 15 min” value in [9] and in data set [10] were 125 ppm and 500 ppm, respectively. For the same substance, the figures for the “ppm needed for 3.5 log kill at 24 hr” value in data set [9] and in [10] were 63 ppm and 500 ppm, respectively.
Turning to “RFARRFARRFARRFARRFARRFARRFAR [RFAR (7), RFAR RFAR RFAR RFAR RFAR RFAR RFAR]”, the IC50 came out at 8 µg/mL in data set [1]; 20 µg/mL in [2]; 31 µg/mL in [3]; 172 µg/mL in data set [4]; 45 µg/mL in [5]. Besides, the MIC in data set [1] is 32 to 62 µg/mL; in [2] it was 62 µg/mL; in data set [3] it was 125 to 250 µg/mL; in [4], 250 to 500 µg/mL; in [5], 62 to 125 µg/mL. Moreover, in data set [6], the HC50 at 24 h stood at 20 µg/mL. Further, the “% kill at 250 μg/ml” value in [7] was 100%. Besides, the “% kill at 500 μg/ml” value in [8] was determined as 12.4%. The substance further registered a TX50 in data set [8] of 106 µg/mL. For the same substance, the “ppm needed for 3.5 log kill at 15 min” value in [9] is reported as 63 ppm; in data set [10] it was more than 500 ppm. Moreover, the “ppm needed for 3.5 log kill at 24 hr” value in data set [9] came to 125 ppm; in data set [10], 4 ppm.
Consider “KFAFKFAFKFAFKFAFKFAFKFAFKFAF [KFAF (7), KFAF KFAF KFAF KFAF KFAF KFAF KFAF]”, for which the IC50 is more than 1000 µg/mL in [1]; 250 µg/mL in [2]; more than 500 µg/mL in data set [3]; more than 500 µg/mL in data set [4]; 67 µg/mL in [5]. The MIC in data set [1] is more than 1000 µg/mL; in data set [2] it was more than 250 µg/mL; in data set [3], more than 500 µg/mL; in [4], more than 500 µg/mL; in data set [5], 125 to 250 µg/mL. Also, the HC50 at 24 h in data set [6] is more than 500 µg/mL. Also, in [7], the “% kill at 250 μg/ml” value is 4%. In data set [8], the “% kill at 500 μg/ml” value was found to be 76.8%. In [8], this substance registered a TX50 of more than 500 µg/mL. The “ppm needed for 3.5 log kill at 15 min” value in data set [9] is 63 ppm; in data set [10], more than 500 ppm. In addition, the “ppm needed for 3.5 log kill at 24 hr” value in data set [9] is given as 63 ppm; in [10], 125 ppm.
Take “H-FKAFKAFKAFKAFKAFKAFKAFKAFKAFKA-OH [FKA (10), FKA FKA FKA FKA FKA FKA FKA FKA FKA FKA]”: the IC50 came out at 9 µg/mL in data set [1]; 27 µg/mL in [2]; 12 µg/mL in [3]; 182 µg/mL in data set [4]; 20 µg/mL in [5]. The MIC in data set [1] is 31 to 62 µg/mL; in data set [2] it was 32 µg/mL; in [3], 31 to 62 µg/mL; in data set [4] it was 250 to 500 µg/mL; in data set [5], 32 to 62 µg/mL. Further, the HC50 at 24 h in data set [6] was more than 500 µg/mL. Also, the “% kill at 250 μg/ml” value in data set [7] was determined as 51%. In data set [8], the “% kill at 500 μg/ml” value came out at 15.0%. For the same substance, the TX50 in data set [8] came out at 234 µg/mL. Besides, the “ppm needed for 3.5 log kill at 15 min” value in data set [9] and in [10] was 8 ppm throughout. Further, the “ppm needed for 3.5 log kill at 24 hr” value came out at 16 ppm in data set [9] and 8 ppm in data set [10].
For the substance “KFKKFKKFKKFKKFKKFK [KFK (6), KFK KFK KFK KFK KFK KFK]”, the IC50 in [1] worked out at 39 µg/mL; in [2], 74 µg/mL; in data set [3], 322 µg/mL; in data set [4] it was 164 µg/mL; in [5], 33 µg/mL. Moreover, the MIC was 62 to 125 µg/mL in data set [1]; 125 µg/mL in [2]; more than 500 µg/mL in [3]; 250 to 500 µg/mL in data set [4]; 40 to 62 µg/mL in data set [5]. The HC50 at 24 h in data set [6] is more than 500 µg/mL. Besides, in [7], the “% kill at 250 μg/ml” value is −7%. The “% kill at 500 μg/ml” value in [8] came to 77.8%. In [8], this substance came in with a TX50 of more than 500 µg/mL. The “ppm needed for 3.5 log kill at 15 min” value in data set [9] and in data set [10] was more than 500 ppm throughout. Besides, the “ppm needed for 3.5 log kill at 24 hr” value in data set [9] worked out at 125 ppm.
With “LKKLLKKLLKKLLKKLLKKLLKKL [LKKL (6), LKKL LKKL LKKL LKKL LKKL LKKL]”, the IC50 amounted to 31 µg/mL in data set [1]; 58 µg/mL in [2]; 98 µg/mL in [3]; 213 µg/mL in [4]; 93 µg/mL in data set [5]. Also, the minimal inhibitory concentration (MIC) in data set [1] is 62 to 125 µg/mL; in data set [2], 65 µg/mL; in [3], more than 250 µg/mL; in data set [4], 250 to 500 µg/mL; in data set [5], more than 125 µg/mL. Also, the HC50 at 24 h in [6] was determined as 11 µg/mL. For the same substance, the “% kill at 250 μg/ml” value in data set [7] stood at 100%. Besides, the “% kill at 500 μg/ml” value in [8] is −1.3%. In [8], this substance showed a TX50 of 26 µg/mL. Also, the “ppm needed for 3.5 log kill at 15 min” value is reported as more than 500 ppm in [9] and 4 ppm in data set [10]. In addition, the “ppm needed for 3.5 log kill at 24 hr” value came out at 8 ppm in data set [9] and 125 ppm in data set [10].
Regarding “KFKKFKKFKKFKKFKKFKKFKKFKKFK [KFK (9), KFK KFK KFK KFK KFK KFK KFK KFK KFK]”, the IC50 was found to be 14 µg/mL in data set [1]; 68 µg/mL in data set [2]; 92 µg/mL in [3]; 194 µg/mL in data set [4]; 39 µg/mL in data set [5]. The MIC is 16 to 32 µg/mL in data set [1]; 125 µg/mL in [2]; 125 to 250 µg/mL in [3]; 250 to 500 µg/mL in data set [4]; 62 to 125 µg/mL in [5]. Further, in data set [6], the HC50 at 24 h is more than 500 µg/mL. For the same substance, the “% kill at 250 μg/ml” value in [7] is listed as −6%. In addition, the “% kill at 500 μg/ml” value in data set [8] was found to be 80.7%. For the same substance, the TX50 in data set [8] is more than 500 µg/mL. In addition, the “ppm needed for 3.5 log kill at 15 min” value in data set [9] and in data set [10] was more than 500 ppm throughout. The entries for the “ppm needed for 3.5 log kill at 24 hr” value in [9] and in data set [10] were 63 ppm and 500 ppm, respectively.
Turning to “LKLKLKLKLKLKLKLKLKLK [LK (10), LK LK LK LK LK LK LK LK LK LK]”, the IC50 was found to be 127 µg/mL in data set [1]; 47 µg/mL in [2]; 29 µg/mL in data set [3]; 187 µg/mL in data set [4]; 3.0 µg/mL in [5]. Further, the MIC in [1] is 150 to 250 µg/mL; in data set [2] it was 125 µg/mL; in data set [3], 125 to 250 µg/mL; in data set [4], 250 to 500 µg/mL; in data set [5] it was 62 to 125 µg/mL. Further, in [6], the HC50 at 24 h is more than 500 µg/mL. Besides, the “% kill at 250 μg/ml” value in data set [7] turned out to be 27%. For the same substance, the “% kill at 500 μg/ml” value in data set [8] is recorded as 65.0%. Moreover, the TX50 in data set [8] is more than 500 µg/mL. Moreover, the “ppm needed for 3.5 log kill at 15 min” value in [9] was 8 ppm; in data set [10], 16 or less ppm. For the same substance, the “ppm needed for 3.5 log kill at 24 hr” value in data set [10] is on record as 16 or less ppm.
As for “H-KFKKFKKFKKFKKFKKFKKFKKFKKFKKFK-OH [KFK (10), KFK KFK KFK KFK KFK KFK KEK KFK KFK KFK]”, the IC50 stood at 10 µg/mL in data set [1]; 31 µg/mL in [2]; 59 µg/mL in data set [3]; 104 µg/mL in [4]; 30 µg/mL in data set [5]. Besides, the MIC in [1] is 12 to 16 µg/mL; in data set [2] it was 62 µg/mL; in data set [3], more than 250 µg/mL; in data set [4], 125 to 250 µg/mL; in [5], 40 to 62 µg/mL. Further, the HC50 at 24 h in data set [6] is more than 500 µg/mL. Further, the “% kill at 250 μg/ml” value in data set [7] stood at 3%. Further, the “% kill at 500 μg/ml” value in [8] worked out at 56.8%. In addition, the TX50 in data set [8] was more than 500 µg/mL. The “ppm needed for 3.5 log kill at 15 min” value in data set [9] is reported as 8 ppm; in data set [10] it was 4 ppm. Also, the entries for the “ppm needed for 3.5 log kill at 24 hr” value in data set [9] and in [10] were 8 ppm and 500 ppm, respectively.
